# Laboratory results taken from patent publication US11291235B2, “Phloretin” (Firmenich SA, priority 2016, dated 2022).
# Legend:
# Assay type in all cases: in vivo
# [1] = Sensory evaluation of tropical flavored soft drink containing 7% sucrose, with and without phloretin
# [2] = Sensory evaluation of pomegranate juice (POM Brand) sweetened with 150 ppm SG95, with and without phloretin
# [3] = Tasting of phloretin in water or model beverage solution of water and citric acid; details: tasted in water or in water and citric acid
# [4] = Sensory evaluation of tropical juice drink sweetened with sucrose (5%) and Stevia (25 ppm), with and without phloretin
# [5] = Phloretin as taste modifier in foods and beverages containing steviol glycosides and rebaudioside
# [6] = Sensory evaluation of strawberry yogurt sweetened with 250 ppm Stevia (SG95), with and without phloretin
# [7] = Sensory assessment of pasteurized sweet water solution of pea protein isolate, with and without phloretin; details: 30 ppm phloretin, eight panelists, 0 to 5 scale, Duncan test
# Experimental: To evaluate sensory effect of phloretin on pea protein solution Evaluation in blind and randomized conditions of pasteurized sweet water solution of pea protein isolate • 1. Control: no phloretin added • 2. Test: 30 ppm phloretin added (via a presolution 10% in propylene glycol) Weigh and premix protein with sugar (600 gram preparation) Dispersion/solubilisation of protein-sugar-water to obtain a “mother mixture”: disperse mix protein/sugar in water (becher—deionized water 40° C.—Mini Ultra-Turrax T18—Speed 2—time:7 minutes). The same “mother mixture” for both the Control and Test trials. Add phloretin (fresh dilution 10% in propylene Glycol) in Test trial. Split each trials in 2 glass bottles: 100 g for pre-evaluation and generation of sensory attributes—200 gram for sensory assessment Pasteurisation (water bach—95° C.—30 minutes). Cooling bottles at room temperature—Storage in fridge until tasting. Perform Sensory assessment at room temperature. Eight panelists were asked to rate intensity of sensory attributes using a 0 to 5 structured scale (from 0 ‘not perceptible’ to 5 ‘strong intensity’). Sensory descriptors were selected to assess taste, tactile and aromatic stimuli Data treatment was run with XLSTAT software (Duncan mean comparison test). Sensory attributes were selected during a preliminary series of applications evaluated in a free-description mode Symbols for significant differences * at 95% (See FIG. 5). […] Other sensory attributes related to taste (“Sweetness”, “Bitterness”), tactile (mouthcoating) or aromatic stimuli (“cereal”) were unmodified.
# [8] = 30 ppm Phloretin, tropical soft drink with 7% sucrose, in words
# [9] = sensory score, 7% Sucrose + 30 ppm Phloretin, tropical soft drink
# [10] = 35 ppm Phloretin, pomegranate juice with 150 ppm Stevia, in words
# [11] = sensory score, Pom Juice + SG95 @150 ppm + Phloretin @ 35 ppm
# [12] = 30 ppm Phloretin, sugar (5%) and Stevia (25 ppm) tropical juice drink, in words
# [13] = sensory score, Sucrose (5%) and Stevia (25 ppm) control + Phloretin @ 30 ppm, tropical juice drink
# [14] = 20 ppm Phloretin, strawberry yogurt with 250 ppm Stevia, in words
# [15] = sensory score, Stevia @250 ppm + 20 ppm Phloretin, strawberry yogurt, n = 29
smiles,measurement,setting,value
"O=C(CCc1ccc(O)cc1)c1c(O)cc(O)cc1O [Phloretin, 3-(4-hydroxyphenyl)-1-(2,4,6-trihydroxyphenyl)propan-1-one]","acidity/sourness, effect of phloretin",[1]; [8],significantly reduced
same,"astringency, effect of phloretin",[1]; [8],significantly reduced
same,"bitterness, effect of phloretin",[1]; [8],significantly reduced
same,Acidity/Sourness intensity,[1]; [9],3.27
same,Astringency intensity,[1]; [9],2.05
same,Bitterness intensity,[1]; [9],1.9
same,Mango Flavor intensity,[1]; [9],6.04
same,Off-Note intensity,[1]; [9],1.72
same,Overall Flavor intensity,[1]; [9],6.76
same,Passion Fruit Flavor intensity,[1]; [9],5.69
same,Tropical Flavor intensity,[1]; [9],6.55
same,"Bitterness Intensity, effect of phloretin",[2]; [10],significantly reduces
same,"Pomegranate flavor intensity, effect of phloretin",[2]; [10],significantly increasing
same,"Sourness intensity, effect of phloretin",[2]; [10],significantly reduces
same,Astringent,[2]; [11],4.1
same,Berry Flv intensity,[2]; [11],6.01
same,Bitterness,[2]; [11],3.35
same,Pomegranate Flv intensity,[2]; [11],6.68
same,Sourness intensity,[2]; [11],4.75
same,Sweetness intensity,[2]; [11],5.79
same,own flavor of phloretin,[3],nearly no flavor on its own
same,"astringency, effect of phloretin",[4]; [12],significantly reduced
same,"bitterness, effect of phloretin",[4]; [12],significantly reduced
same,Acidity,[4]; [13],2.93
same,Astringency,[4]; [13],1.21
same,Bitterness,[4]; [13],0.57
same,Long-lasting (sweet),[4]; [13],0.50
same,Off-notes,[4]; [13],1.21
same,Overall Flavor,[4]; [13],3.71
same,Sweetness,[4]; [13],2.29
same,off-note masking: bitterness,[5],reduced bitterness
same,off-note masking: licorice,[5],reduced licorice
same,off-note masking: linger,[5],reduced linger
same,Strawberry flavor intensity versus control,[6]; [14],higher
same,licorice taste versus control,[6]; [14],significantly lower
same,Acidity,[6]; [15],2.56
same,Fruity,[6]; [15],3.25
same,Green,[6]; [15],2.38
same,Jammy,[6]; [15],3.19
same,Licorice,[6]; [15],1.44
same,Long Lasting,[6]; [15],2.56
same,Strawberry Flavor,[6]; [15],3.56
same,Sweetness,[6]; [15],3.38
same,"Sweetness, effect of phloretin",[7],unmodified
same,"aromatic stimuli (cereal), effect of phloretin",[7],unmodified
same,"bitterness, effect of phloretin",[7],unmodified
same,"score in astringency, effect of phloretin",[7],significantly reduce
same,"score in off-tastes, effect of phloretin",[7],significantly reduce
same,"tactile (mouthcoating), effect of phloretin",[7],unmodified
